Laboratory results published in article PMC9234961 (Journal of Medicinal Chemistry, 2022).
pIC50: −log10 of the molar value. In brackets after ≈: the same amount, converted by molar mass. Several values for one entry are separate records, joined by “and”; a condition that tells them apart may be missing. Identical values can stand only once. Like-named read-outs stand apart in the source and are kept apart here.

Experiments:
[1] = NMR solubility assay; assay type: physicochemical; settings: kinetic solubility by NMR in HEPES buffer at pH 8, 4% DMSO; read-out: Aq. Sol.
Description: 4. Supplementary experimental: physicochemical assays
0.5 mM TCEP, 10% D2O) was pipetted into the same well and mixed by up-down pipetting 3 times to create […]
It was then separated by centrifugation (1000 rpm
The plate was then sealed and incubated at room temperature for 20 hours, […]
165 µL of the supernatant was transferred to a 3 mm NMR tube (Bruker, Part No. Z112272) using liquid handler SamplePro Tube SJ S (Bruker). The concentration of the solubilized compound in solubility sample is measured by quantitative 1H-NMR using a single external standard (200 µM caffeine (Sigma, C1778) in PBS (pH 7.4) with 1% DMSO-d6).
The detail of the NMR method is as following: NMR data was collected on a Bruker Avance Neo 600 spectrometer equipped with a 5 mm TCI-CryoProbe. The 1H spectrum was referenced to the internal deuterated solvent. The operating frequency for 1H was 600 MHz. All NMR data were acquired at the […]
1H-NMR spectrum was acquired using a Bruker standard 1D lc1pngppsf2 pulse sequence with 32 scans.
The sweep width was 6.2 ppm with O1P set to 8.8 ppm, and the FID contained 16k time-domain data points. Relaxation delay was set to 20 sec. Water signal was suppressed. […]

[2] = logD7.4 assay (Chrom log D method); assay type: physicochemical; settings: reversed-phase HPLC on Phenomenex Luna C8 column, pH 7.4, read-out: Measured logD7.4
Description: Calibration, validation and in-house compounds were prepared at 1mM in 10% DMSO / 90% Trizma solution (100mM Trizma in 75/25 methanol/water). 3 µL standard injections (with needle wash) of all calibration, validation and in-house samples were made onto a Phenomenex Luna C8 column (3µm, 100 x 4.6 mm, 100A, Phenomenex, Torrence, USA). Chromatographic separation at 30°C was carried out using […]
2 mL/min. The gradient was held at 0:100 water:organic for 0.8 minutes, then returned to the starting conditions of 95:5 water:organic for 0.2 minutes. The column was re-equilibrated for 5 minutes at the […]

[3] = target: T1, human BCL6 BTB domain (Homo sapiens, UniProt P41182); settings: for BCL6 TR-FRET pIC50 mean: mean of replicates
[4] = Microsomal clearance assay (MLM); assay type: in vitro ADME; settings: female, CD1, pH 7.4; mouse liver microsomes, 1 μM compound
Description: 6. Supplementary experimental: in vitro DMPK assays
6.1 Microsomal clearance assay
Microsomal clearance was determined in female CD1 mice, female Sprague–Dawley rats, and mixed gender human liver microsomes obtained from BioIVT (Peterborough, U.K.) following incubation of 1 μM compound at 37 °C in 0.5 mg/mL microsomal protein, 3 mmol/L MgCl2, 1 mmol/L NADPH, 2.5 mmol/L and 10 mmol/L phosphate buffer (pH 7.4) (all purchased from Sigma-Aldrich, Gillingham, U.K). Reactions were started by addition of the cofactors following 10 min preincubation of microsomes with test compound and were terminated at −1, 0, 5, 10, 15, and 30 min with three volumes of ice-cold methanol containing internal standard. Samples were centrifuged at 2800g for 30 min at 4 °C and the supernatants analyzed.
Control incubations were prepared as above with omission of cofactors. Compound measurements were […]
separation with a 3 min gradient of 0.1% formic acid in methanol on a Kinetex C18, 50 × 2.1 mm 2.6 μm UPLC column (Phenomenex, Macclesfield, UK). […]

[5] = target: endogenous BCL6 in OCI-Ly1 cells (Homo sapiens, UniProt P41182); experiment: cell-based; settings: for degradation of BCL6 (in words): OCI-Ly1 MSD assay; for MSD degrader assay [OCI-Ly1] Dmax: mean maximal degradation of BCL6; for MSD degrader assay [OCI-LY1] pDC50 mean: mean of replicates
[6] = target: T1, human BCL6 BTB domain; experiment: biochemical; settings: BCL6 TR-FRET IC50 individual replicates, single replicate values
[7] = read-out: BCL6 TR-FRET IC50, geometric mean, BCOR-AF633 peptide, 2 h incubation
[8] = read-out: BCL6 TR-FRET IC50 individual replicates, single replicate values
[9] = OCI-Ly1, read-out: MSD degrader assay [OCI-LY1] Dmax individual replicates, single replicate values
[10] = read-out: MSD degrader assay [OCI-LY1] DC50 individual replicates, single replicate values
[11] = read-out: MSD degrader assay [OCI-Ly1] DC50, geometric mean, OCI-Ly1 cells, 2 h incubation
[12] = OCI-Ly1, read-out: MSD degrader assay [OCI-Ly1] Dmax, mean maximal degradation of BCL6, OCI-Ly1 cells, 2 h

| SMILES | solubility kinetic at 20 h [1] [µM] | chromatographic logD [2] | BCL6 TR-FRET pIC50 mean [3] | pIC50 [3, 7] | pIC50 [3, 8] | microsomal CLint at 0.5 h, 1 µM [4] [µL/min/mg] | Dmax [5, 9] [%] | degradation of BCL6 (in words) [5] | MSD degrader assay [OCI-Ly1] Dmax ([5]; OCI-Ly1 cells, 2 h) [%] | MSD degrader assay [OCI-LY1] pDC50 mean [5] | DC50 [5, 10] | DC50 [5, 11] [nM] | MSD degrader assay [OCI-LY1] Dmax individual replicates ([5]; single replicate values) | pIC50 [6] | Dmax [5, 12] [%] |
| --- | --- | --- | --- | --- | --- | --- | --- | --- | --- | --- | --- | --- | --- | --- | --- |
| C[C@H]1C[C@@H](N(C)C)CN(c2ncc(Cl)c(Nc3ccc4c(c3)c3c(c(=O)n4C)OCC(F)(F)[C@H](C4CC4)N3)n2)C1 [11a, (S)-10-((5-Chloro-2-((3R,5S)-3-(dimethylamino)-5-methylpiperidin-1-yl)pyrimidin-4-yl)amino)-2-cyclopropyl-3,3-difluoro-7-methyl-1,2,3,4-tetrahydro-[1,4]oxazepino[2,3-c]quinolin-6(7H)-one] | 60 (≈ 34.4 µg/mL) | 3.3 | 8.4757 | 8.48 | 8.49 and 8.48 | 876 | 53.6 | potently degrading isomer | 56 | 8.0099 | 8.3 nM and 8.9 nM and 12.7 nM | 9.8 | 60.7% and 54.9% | 8.41 and 8.52 |  |
| CC(=O)N[C@@H]1C[C@H](C)CN(c2ncc(Cl)c(Nc3ccc4c(c3)c3c(c(=O)n4C)OCC(F)(F)[C@H](C4CC4)N3)n2)C1 [10a, N-((3R,5S)-1-(5-Chloro-4-(((S)-2-cyclopropyl-3,3-difluoro-7-methyl-6-oxo-1,2,3,4,6,7-hexahydro-[1,4]oxazepino[2,3-c]quinolin-10-yl)amino)pyrimidin-2-yl)-5-methylpiperidin-3-yl)acetamide] | 15 (≈ 8.82 µg/mL) | 2.8 | 8.4394 | 8.44 |  | 138 | 72.4 | potently degrading isomer | 67 | 8.6565 | 1.7 nM and 2.8 nM | 2.2 | 61.63% | 8.47 and 8.36 and 8.49 |  |
| C[C@@H]1CCCN(c2ncc(Cl)c(Nc3ccc4c(c3)c3c(c(=O)n4C)OCC(F)(F)[C@H](C4CC4)N3)n2)C1 [15b, (S)-10-((5-Chloro-2-((R)-3-methylpiperidin-1-yl)pyrimidin-4-yl)amino)-2-cyclopropyl-3,3-difluoro-7-methyl-1,2,3,4-tetrahydro-[1,4]oxazepino[2,3-c]quinolin-6(7H)-one] | 0 | 5 | 7.6089 | 7.61 | 7.62 | 204 | 73.4 | degraders of BCL6 | 72 | 7.4874 | 19.4 nM and 39.6 nM and 44.8 nM | 32.6 | 70.6% and 72.2% | 7.56 and 7.65 | 72.1 |
| CC(=O)N[C@H]1C[C@@H](C)CN(c2ncc(Cl)c(Nc3ccc4c(c3)c3c(c(=O)n4C)OCC(F)(F)[C@H](C4CC4)N3)n2)C1 [10b, N-((3S,5R)-1-(5-Chloro-4-(((S)-2-cyclopropyl-3,3-difluoro-7-methyl-6-oxo-1,2,3,4,6,7-hexahydro-[1,4]oxazepino[2,3-c]quinolin-10-yl)amino)pyrimidin-2-yl)-5-methylpiperidin-3-yl)acetamide] | 15 (≈ 8.82 µg/mL) | 2.8 | 8.5388 | 8.54 | 8.52 | 134 | < 30 | nondegrading isomer | > 30 |  | > 2000 nM | > 2000 |  | 8.46 and 8.59 and 8.60 | < 30 |
